Test results as given in patent US10654837B2, “Sulphamoylaryl derivatives and use thereof as medicaments for the treatment of liver fibrosis” (Janssen Pharmaceutica NV, priority 2017, dated 2020).

Molecular target: T1, 5HTR2B (Homo sapiens, UniProt P41595)
T1 construct: host or cells: human Maverick/293 cells
Assay: 5HTR2B antagonist activity, calcium mobilization assay in human Maverick/293 cells (serotonin as agonist)
Format: cell-based
Conditions: intracellular calcium, emission 525 nm, read-out: Ca assay IC50
Description: The 5HTR2B antagonist activity was measured using human Maverick/293 cells in a calcium mobilization assay. The measurement starting with plating human Maverick/293 cells (log phase) onto 96-well black and incubate at 37° C. overnight, Followed by starving cells for 2 h by changing complete medium to DMEM without FBS, removing the medium from the 96-well plate. Loading staining calcium buffer into each well and incubated the plate at 37° C. for 50 min. After removal of staining calcium buffer, diluted antagonist were added into the well, incubate 15 to 30 minutes. Dispense serotonin as the 5HTR2B agonists into each well. Intracellular calcium concentration is recorded for 80 seconds by monitoring an emission at a wavelength of 525 nm with an excitation wavelength of 485 nm. Inhibition efficiency of the cell line was determined following the equation: % Inhibition=100%−(D−B)/(S−B)*100%. (S: The peak value in the presence of agonist serotonin; D: The peak value in the presence of different dilution compound or serotonin; B: The peak value in the presence of calcium HBSS buffer only). […] A dose response curve was fitted using nonlinear regression model with a sigmoidal dose response. The IC50 was automatically produced by GraphPad Prism 5.0.

T1 sequence (P41595 whole entry): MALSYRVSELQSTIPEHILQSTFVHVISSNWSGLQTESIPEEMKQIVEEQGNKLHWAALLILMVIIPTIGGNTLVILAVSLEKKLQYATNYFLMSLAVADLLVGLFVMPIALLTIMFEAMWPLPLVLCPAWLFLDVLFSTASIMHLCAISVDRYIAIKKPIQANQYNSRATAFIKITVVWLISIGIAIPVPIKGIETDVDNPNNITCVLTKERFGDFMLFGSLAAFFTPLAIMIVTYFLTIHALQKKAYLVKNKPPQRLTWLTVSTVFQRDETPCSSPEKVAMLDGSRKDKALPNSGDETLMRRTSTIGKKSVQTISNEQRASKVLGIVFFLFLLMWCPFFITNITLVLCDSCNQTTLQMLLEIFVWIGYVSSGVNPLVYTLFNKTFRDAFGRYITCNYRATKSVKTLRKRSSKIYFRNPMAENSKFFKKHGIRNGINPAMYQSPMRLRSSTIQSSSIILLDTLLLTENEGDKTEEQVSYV

| Structure (SMILES) | IC50 [nM] |
| --- | --- |
| COc1ccc(S(=O)(=O)NC2COC[C@H]2O)cc1C(=O)Nc1ccccc1Cl (stereo in doubt) [Compound 56b, N-(2-Chlorophenyl)-5-(N-((cis)-4-hydroxytetrahydrofuran-3-yl)sulfamoyl)-2-methoxybenzamide] | 0.2 |
| COc1ccc(S(=O)(=O)NC2CC(F)(F)C2)cc1C(=O)Nc1ccc(F)c(C)c1 [Compound 1, 5-(N-(3,3-Difluorocyclobutyl)sulfamoyl)-N-(4-fluoro-3-methylphenyl)-2-methoxybenzamide] | 2.3 |
| COc1ccc(S(=O)(=O)N[C@H]2CCOC2)cc1C(=O)Nc1ccc(F)c(C)n1 [Compound 2] | 0.6 |
| COc1ccc(S(=O)(=O)N[C@H]2CCOC2)cc1C(=O)Nc1cccc(F)c1Cl [Compound 3, (S)—N-(2-Chloro-3-fluorophenyl)-2-methoxy-5-(N-(tetrahydrofuran-3-yl)sulfamoyl) benzamide] | 1.7 |
| COc1ccc(S(=O)(=O)N[C@H]2CCOC2)cc1C(=O)Nc1ccc(F)c(C)c1 [Compound 4, (S)—N-(4-Fluoro-3-methylphenyl)-2-methoxy-5-(N-(tetrahydrofuran-3-yl)sulfamoyl)benzamide] | 0.7 |
| COc1ccc(S(=O)(=O)NC2COC2)cc1C(=O)Nc1ccc(F)c(C)c1 [Compound 5, N-(4-Fluoro-3-methylphenyl)-2-methoxy-5-(N-(oxetan-3-yl)sulfamoyl) benzamide] | 4.2 |
| COc1ccc(S(=O)(=O)N[C@H]2C[C@H](O)C2)cc1C(=O)Nc1ccc(F)c(C)c1 [Compound 6a, N-(4-Fluoro-3-methylphenyl)-5-(N-((trans)-3-hydroxycyclobutyl)sulfamoyl)-2-methoxybenzamide] | 18 |
| COc1ccc(S(=O)(=O)N[C@H]2C[C@@H](O)C2)cc1C(=O)Nc1ccc(F)c(C)c1 [Compound 6b, N-(4-Fluoro-3-methylphenyl)-5-(N-((cis)-3-hydroxycyclobutyl)sulfamoyl)-2-methoxybenzamide] | 1.9 |
| COc1ccc(S(=O)(=O)NC2CC(C)C2)cc1C(=O)Nc1ccc(F)c(C)c1 (stereo not shown) [Compound 7, N-(4-Fluoro-3-methylphenyl)-2-methoxy-5-(N-(3-methylcyclobutyl)sulfamoyl) benzamide] | 5.4 |
| COc1ccc(S(=O)(=O)N[C@H]2C[C@@H](C)C2)cc1C(=O)Nc1ccc(F)c(C)c1 [Compound 7a, N-(4-Fluoro-3-methylphenyl)-2-methoxy-5-(N-((cis)-3-methylcyclobutyl)sulfamoyl)benzamide] | 3.8 |
| COc1ccc(S(=O)(=O)N[C@H]2C[C@H](C)C2)cc1C(=O)Nc1ccc(F)c(C)c1 [Compound 7b, N-(4-Fluoro-3-methylphenyl)-2-methoxy-5-(N-((trans)-3-methylcyclobutyl)sulfamoyl)benzamide] | 6.9 |
| COc1ccc(S(=O)(=O)NC(C)C)cc1C(=O)Nc1ccc(F)c(C)c1 [Compound 8, N-(4-Fluoro-3-methylphenyl)-5-(N-isopropylsulfamoyl)-2-methoxybenzamide] | 2.5 |
| COc1ccc(S(=O)(=O)NC2(C)COC2)cc1C(=O)Nc1ccc(F)c(C)c1 [Compound 9, N-(4-Fluoro-3-methylphenyl)-2-methoxy-5-(N-(3-methyloxetan-3-yl)sulfamoyl) benzamide] | 2.2 |
| COc1ccc(S(=O)(=O)NC(C)CO)cc1C(=O)Nc1ccc(F)c(C)c1 (stereo not shown) [Compound 10, N-(4-Fluoro-3-methylphenyl)-5-(N-(1-hydroxypropan-2-yl)sulfamoyl)-2-methoxybenzamide] | 4.5 |
| COc1ccc(S(=O)(=O)N[C@@H](C)CO)cc1C(=O)Nc1ccc(F)c(C)c1 [Compound 10a, (S)—N-(4-Fluoro-3-methylphenyl)-5-(N-(1-hydroxypropan-2-yl)sulfamoyl)-2-methoxybenzamide] | 4.5 |
| COc1ccc(S(=O)(=O)N[C@H](C)CO)cc1C(=O)Nc1ccc(F)c(C)c1 [Compound 10b, (R)—N-(4-Fluoro-3-methylphenyl)-5-(N-(1-hydroxypropan-2-yl)sulfamoyl)-2-methoxybenzamide] | 12 |
| COc1ccc(S(=O)(=O)NC(C)C(N)=O)cc1C(=O)Nc1ccc(F)c(C)c1 (stereo not shown) [Compound 12, 5-(N-(1-Amino-1-oxopropan-2-yl)sulfamoyl)-N-(4-fluoro-3-methylphenyl)-2-methoxybenzamide] | 9.3 |
| COc1ccc(S(=O)(=O)N[C@@H](C)C(N)=O)cc1C(=O)Nc1ccc(F)c(C)c1 [Compound 12a, (S)-5-(N-(1-Amino-1-oxopropan-2-yl)sulfamoyl)-N-(4-fluoro-3-methylphenyl)-2-methoxybenzamide] | 1.8 |
| COc1ccc(S(=O)(=O)N[C@H](C)C(N)=O)cc1C(=O)Nc1ccc(F)c(C)c1 [Compound 12b, (R)-5-(N-(1-Amino-1-oxopropan-2-yl)sulfamoyl)-N-(4-fluoro-3-methylphenyl)-2-methoxybenzamide] | 122 |

| Structure (SMILES) | IC50 [nM] |
| --- | --- |
| COc1ccc(S(=O)(=O)NC2(CO)COC2)cc1C(=O)Nc1ccc(F)c(C)c1 [Compound 13, N-(4-Fluoro-3-methylphenyl)-5-(N-(3-(hydroxymethyl)oxetan-3-yl)sulfamoyl)-2-methoxybenzamide] | 66.3 |
| COc1ccc(S(=O)(=O)NC2CC(C)(C)C2)cc1C(=O)Nc1ccc(F)c(C)c1 [Compound 14, 5-(N-(3,3-Dimethylcyclobutyl)sulfamoyl)-N-(4-fluoro-3-methylphenyl)-2-methoxybenzamide] | 14.6 |
| COc1ccc(S(=O)(=O)NC2CCOCC2)cc1C(=O)Nc1ccc(F)c(C)n1 [Compound 17, N-(5-Fluoro-6-methylpyridin-2-yl)-2-methoxy-5-(N-(tetrahydro-2H-pyran-4-yl)sulfamoyl)benzamide] | 7.2 |
| COc1ccc(S(=O)(=O)N[C@H]2CC[C@H](O)CC2)cc1C(=O)Nc1ccc(F)c(C)n1 [Compound 18, (trans)-N-(5-Fluoro-6-methylpyridin-2-yl)-5-(N-(−4-hydroxycyclohexyl)sulfamoyl)-2-methoxybenzamid] | 222 |
| COc1ccc(S(=O)(=O)NC2CCN(C)CC2)cc1C(=O)Nc1ccc(F)c(C)n1 [Compound 19, N-(5-Fluoro-6-methylpyridin-2-yl)-2-methoxy-5-(N-(1-methylpiperidin-4-yl)sulfamoyl)benzamide] | 173 |
| COc1ccc(S(=O)(=O)NC2CCCCC2)cc1C(=O)Nc1ccc(F)c(C)n1 [Compound 20, 5-(N-Cyclohexylsulfamoyl)-N-(5-fluoro-6-methylpyridin-2-yl)-2-methoxy benzamide] | 4.4 |
| COc1ccc(S(=O)(=O)NC2CC2)cc1C(=O)Nc1ccc(F)c(C)n1 [Compound 21, 5-(N-Cyclopropylsulfamoyl)-N-(5-fluoro-6-methylpyridin-2-yl)-2-methoxy benzamide] | 1.6 |
| COc1ccc(S(N)(=O)=O)cc1C(=O)Nc1ccc(F)c(C)n1 [Compound 22] | 610 |
| CNS(=O)(=O)c1ccc(OC)c(C(=O)Nc2ccc(F)c(C)n2)c1 [Compound 24] | 47 |
| COc1ccc(S(=O)(=O)NC(C)C)cc1C(=O)Nc1ccc(F)c(C)n1 [Compound 25, N-(5-Fluoro-6-methylpyridin-2-yl)-5-(N-isopropylsulfamoyl)-2-methoxy benzamide] | 1.4 |
| CCNS(=O)(=O)c1ccc(OC)c(C(=O)Nc2ccc(F)c(C)n2)c1 [Compound 26, 5-(N-Ethylsulfamoyl)-N-(5-fluoro-6-methylpyridin-2-yl)-2-methoxybenzamide] | 1.3 |
| COc1ccc(S(=O)(=O)N[C@H]2CC[C@@H](O)CC2)cc1C(=O)Nc1ccc(F)c(C)n1 [Compound 27, N-(5-Fluoro-6-methylpyridin-2-yl)-5-(N-((cis)-4-hydroxycyclohexyl)sulfamoyl)-2-methoxybenzamide] | 1.1 |
| COc1ccc(S(=O)(=O)N2CCCC2)cc1C(=O)Nc1ccc(F)c(C)n1 [Compound 30, N-(5-Fluoro-6-methylpyridin-2-yl)-2-methoxy-5-(pyrrolidin-1-ylsulfonyl) benzamide] | 24 |
| COc1ccc(S(=O)(=O)N[C@H]2C[C@@](C)(O)C2)cc1C(=O)Nc1ccc(F)c(C)n1 [Compound 31, N-(5-fluoro-6-methylpyridin-2-yl)-5-(N-((cis)-3-hydroxy-3-methylcyclobutyl)sulfamoyl)-2-methoxybenzamide] | 55 |
| COc1ccc(S(=O)(=O)N[C@@H](C)C(N)=O)cc1C(=O)Nc1ccc(F)c(C(F)F)c1 [Compound 34a, (S)-5-(N-(1-Amino-1-oxopropan-2-yl)sulfamoyl)-N-(3-(difluoromethyl)-4-fluorophenyl)-2-methoxybenzamide] | 1.4 |
| COc1ccc(S(=O)(=O)N[C@H](C)C(N)=O)cc1C(=O)Nc1ccc(F)c(C(F)F)c1 [Compound 34b, (R)-5-(N-(1-Amino-1-oxopropan-2-yl)sulfamoyl)-N-(3-(difluoromethyl)-4-fluorophenyl)-2-methoxybenzamide] | 167 |
| COc1ccc(S(=O)(=O)N[C@@H](C)CO)cc1C(=O)Nc1ccc(F)c(C(F)F)c1 [Compound 35a, (S)—N-(3-(Difluoromethyl)-4-fluorophenyl)-5-(N-(1-hydroxypropan-2-yl)sulfamoyl)-2-methoxybenzamide] | 0.7 |
| COc1ccc(S(=O)(=O)N[C@H](C)CO)cc1C(=O)Nc1ccc(F)c(C(F)F)c1 [Compound 35b, (R)—N-(3-(Difluoromethyl)-4-fluorophenyl)-5-(N-(1-hydroxypropan-2-yl)sulfamoyl)-2-methoxybenzamide] | 4.3 |
